Data on eleven compounds can be found in patent US20230416275A1, “MODULATORS OF CYSTIC FIBROSIS TRANSMEMBRANE CONDUCTANCE REGULATOR” (VERTEX PHARMACEUTICALS INCORPORATED, priority 2020, published 2023).

The conditions of series [1]: amide bond; 14-membered ring; HATU/DIEA; DMF; 3 steps.
The target of another series is CFTR (Homo sapiens, UniProt P13569). As to the kind of experiment: standard Ussing Chamber Assay for CFTR potentiator activity. The series is classed as cell-based. Here is the method:
tert-Butyl N-[(6R,12R)-6-benzyloxy-12-methyl-6,15-bis(trifluoromethyl)-13,19-dioxa-3,4,18-triazatricyclo[12.3.1.12,5]nonadeca-1(18),2,4,14,16-pentaen-17-yl]-N-tert-butoxycarbonyl-carbamate (8.6 g, 11.77 mmol) was dissolved in ethanol (172 mL) then the flask was cycled 3 times between vacuum/nitrogen. Treated the mixture with 10% Pd/C (50% water wet, 1.8 g of 5% w/w, 0.8457 mmol) then cycled 3 times between vacuum/nitrogen and 3 times between vacuum/hydrogen and then stirred vigorously under hydrogen (balloon) at room temperature for 18 hours. The mixture was cycled 3 times between vacuum/nitrogen, filtered over Celite, washing with ethanol, and then the filtrate was evaporated to give 7.3 g of tert-butyl N-tert-butoxycarbonyl-N-[(6R,12R)-6-hydroxy-12-methyl-6,15-bis(trifluoromethyl)-13,19-dioxa-3,4,18-triazatricyclo[12.3.1.12,5]nonadeca-1(18),2,4,14,16-pentaen-17-yl]carbamate an off-white solid. 1H NMR and MS confirmed the expected product. CFTR modulatory activity was confirmed using a standard Ussing Chamber Assay for CFTR potentiator activity.

Series [2] addresses T1, CFTR-mediated chloride transport in human intestinal epithelial enteroid cells (Homo sapiens, UniProt P13569). Nature of the series: Membrane potential dye, Enteroid Assay A. The series is classed as cell-based. Conditions: for Ent. A Max Activity (%): % of chloride transport of triple combination control (3 μM N-[(6-amino-2-pyridyl)sulfonyl]-6-(3-fluoro-5-isobutoxy-phenyl)-2-[(4S)-2,2,4-trimethylpyrrolidin-1-yl]pyridine-3-carboxamide, 3 μM tezacaftor, 300 nM acute ivacaftor); for EC50: enteroid cells, 18-24 hours incubation, acute 10 μM forskolin and 300 nM ivacaftor, read-out: Ent. A EC50. Summed up: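 Enteroids seeded at 5000 cells/well were exposed to test compound in IEMM for 18-24 h at 37 °C, then loaded with methyl oxonol membrane potential dye. Chloride transport was triggered in chloride-free buffer with 10 μM forskolin, 100 μM IBMX and 300 nM Compound III, read by fluorescence for 15 min and expressed as % of a triple-combination control.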

Another series concerns the target T2, F508del in NIH 3T3 cells (Homo sapiens, UniProt P13569, DEL508-508).
T2 construct: expressed in transfected cells
As to the kind of experiment: 3T3 assay: membrane potential optical assay for F508del correction. The settings on record: for EC50: F508del NIH 3T3 cells, compound incubation 18-24 hours at 37° C., forskolin activation, read-out: 3T3 EC50; for Emax: NIH3T3, F508del NIH 3T3 cells, efficacy compared to lumacaftor in combination with acutely added 300 nM Ivacaftor, read-out: 3T3 Max Activity (%). The series is classed as cell-based, mouse. The procedure, abridged:
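NIH3T3 mouse fibroblasts stably expressing F508del incubated with corrector compounds at a range of concentrations for 16-24 h at 37 °C, then loaded with voltage-sensing redistribution dye. Single addition of forskolin with Cl− gradient (chloride-free gluconate bath vs. NaCl bath, pH 7.4); membrane potential change read by fluorescence on FLIPR.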

Series [3] deals with T1, CFTR-mediated chloride transport in human intestinal epithelial enteroid cells. As to the kind of experiment: Membrane potential dye, Enteroid Assay B. The series is classed as cell-based. Conditions: for Ent. B Max Activity (%): % of chloride transport of triple combination control (1 μM (14S)-8-[3-(2-{Dispiro[2.0.2.1]heptan-7-yl}ethoxy)-1H-pyrazol-1-yl]-12,12-dimethyl-... macrocycle, 3 μM tezacaftor, 300 nM acute ivacaftor); for EC50: enteroid cells, 18-24 hours incubation, acute 10 μM forskolin and 300 nM ivacaftor, read-out: Ent. B EC50. Here is the method:
Base medium (ADF+++) consisted of Advanced DMEM/Ham's F12, 2 mM Glutamax, 10 mM HEPES, […] penicillin/streptomycin.
Intestinal enteroid maintenance medium (IEMM) consisted of ADF+++, 1×B27 supplement, 1×N2 supplement, 1.25 mM N-acetyl cysteine, 10 mM Nicotinamide, 50 ng/mL hEGF, 10 nM Gastrin, 1 μg/mL hR-spondin-1, 100 ng/mL hNoggin, TGF-b type 1 inhibitor A-83-01, 100 μg/mL Primocin, 10 μM P38 MAPK inhibitor SB202190.
Bath 1 Buffer consisted of 1 mM MgCl2, 160 mM NaCl, 4.5 mM KCl, 10 mM HEPES, 10 mM Glucose, 2 mM CaCl2.
Chloride Free Buffer consisted of 1 mM Magnesium Gluconate, 2 mM Calcium Gluconate, 4.5 mM Potassium Gluconate, 160 mM Sodium Gluconate, 10 mM HEPES, 10 mM Glucose.
Bath1 Dye Solution consisted of Bath 1 Buffer, 0.04% Pluronic F127, 20 μM Methyl Oxonol, 30 μM CaCCinh-A01, 30 μM Chicago Sky Blue.
Chloride Free Dye Solution consisted of Chloride Free Buffer, 0.04% Pluronic F127, 20 μM Methyl Oxonol, 30 μM CaCCinh-A01, 30 μM Chicago Sky Blue.
Chloride Free Dye Stimulation Solution consisted of Chloride Free Dye Solution, 10 μM forskolin, 100 μM IBMX, and 300 nM Compound III.
Human intestinal epithelial enteroid cells were obtained from the Hubrecht Institute for Developmental Biology and Stem Cell Research, Utrecht, The Netherlands and expanded in T-Flasks as previously described (Dekkers J F, Wiegerinck C L, de Jonge H R, Bronsveld I, Janssens H M, de Winter-de Groot K M, Brandsma A M, de Jong N W M, Bijvelds M J C, Scholte B J, Nieuwenhuis E E S, van den Brink S, Clevers H, van der Ent C K, Middendorp S and M Beekman J M. A functional CFTR assay using primary cystic fibrosis intestinal organoids. Nat Med. 2013 July; 19(7):939-45).
c. Enteroid Cell Harvesting and Seeding
Cells were recovered in cell recovery solution, collected by centrifugation at 650 rpm for 5 minutes at 4° C., resuspended in TrypLE and incubated for 5 minutes at 37° C. Cells were then collected by centrifugation at 650 rpm for 5 minutes at 4° C. and resuspended in IEMM containing 10 μM ROCK inhibitor (RI). The cell suspension was passed through a 40 μm cell strainer and resuspended at 1×10^6 cells/mL in IEMM containing 10 μM RI. Cells were seeded at 5000 cells/well into multi-well plates and incubated for overnight at 37° C., 95% humidity and 5% CO2 prior to assay.
e. Membrane Potential Dye, Enteroid Assay B
Enteroid cells were incubated with test compound in IEMM for 18-24 hours at 37° C., 95% humidity and 5% CO2. […] Briefly, cells were washed 5 times in Bath 1 Buffer. Bath 1 Dye Solution was added and the cells were incubated for 25 minutes at room temperature. Following dye incubation, cells were washed 3 times in Chloride Free Dye Solution. Chloride transport was initiated by addition of Chloride Free Dye Stimulation Solution and the fluorescence signal was read for 15 minutes. […] Chloride transport was then expressed as a percentage of the chloride transport following treatment with 1 μM (14S)-8-[3-(2-{Dispiro[2.0.2.1]heptan-7-yl}ethoxy)-1H-pyrazol-1-yl]-12,12-dimethyl-2λ^6-thia-3,9,11,18,23-pentaazatetracyclo[17.3.1.111,14.05,10]tetracosa-1(22),5,7,9,19(23),20-hexaene-2,2,4-trione, 3 μM (R)-1-(2,2-difluorobenzo[d][1,3]dioxol-5-yl)-N-(1-(2,3-dihydroxypropyl)-6-fluoro-2-(1-hydroxy-2-methylpropan-2-yl)-1H-indol-5-yl)cyclopropanecarboxamide and 300 nM acute N-[2,4-bis(1,1-dimethylethyl)-5-hydroxyphenyl]-1,4-dihydro-4-oxoquinoline-3-carboxamide triple combination control (% Activity).

Read-outs that look alike come from different tables or passages of the source. Some results are limits rather than exact numbers.

Usually EC50 stands for the concentration at which the effect is half-maximal.

T2 sequence (P13569 with tags, fused parts or gaps DEL508-508): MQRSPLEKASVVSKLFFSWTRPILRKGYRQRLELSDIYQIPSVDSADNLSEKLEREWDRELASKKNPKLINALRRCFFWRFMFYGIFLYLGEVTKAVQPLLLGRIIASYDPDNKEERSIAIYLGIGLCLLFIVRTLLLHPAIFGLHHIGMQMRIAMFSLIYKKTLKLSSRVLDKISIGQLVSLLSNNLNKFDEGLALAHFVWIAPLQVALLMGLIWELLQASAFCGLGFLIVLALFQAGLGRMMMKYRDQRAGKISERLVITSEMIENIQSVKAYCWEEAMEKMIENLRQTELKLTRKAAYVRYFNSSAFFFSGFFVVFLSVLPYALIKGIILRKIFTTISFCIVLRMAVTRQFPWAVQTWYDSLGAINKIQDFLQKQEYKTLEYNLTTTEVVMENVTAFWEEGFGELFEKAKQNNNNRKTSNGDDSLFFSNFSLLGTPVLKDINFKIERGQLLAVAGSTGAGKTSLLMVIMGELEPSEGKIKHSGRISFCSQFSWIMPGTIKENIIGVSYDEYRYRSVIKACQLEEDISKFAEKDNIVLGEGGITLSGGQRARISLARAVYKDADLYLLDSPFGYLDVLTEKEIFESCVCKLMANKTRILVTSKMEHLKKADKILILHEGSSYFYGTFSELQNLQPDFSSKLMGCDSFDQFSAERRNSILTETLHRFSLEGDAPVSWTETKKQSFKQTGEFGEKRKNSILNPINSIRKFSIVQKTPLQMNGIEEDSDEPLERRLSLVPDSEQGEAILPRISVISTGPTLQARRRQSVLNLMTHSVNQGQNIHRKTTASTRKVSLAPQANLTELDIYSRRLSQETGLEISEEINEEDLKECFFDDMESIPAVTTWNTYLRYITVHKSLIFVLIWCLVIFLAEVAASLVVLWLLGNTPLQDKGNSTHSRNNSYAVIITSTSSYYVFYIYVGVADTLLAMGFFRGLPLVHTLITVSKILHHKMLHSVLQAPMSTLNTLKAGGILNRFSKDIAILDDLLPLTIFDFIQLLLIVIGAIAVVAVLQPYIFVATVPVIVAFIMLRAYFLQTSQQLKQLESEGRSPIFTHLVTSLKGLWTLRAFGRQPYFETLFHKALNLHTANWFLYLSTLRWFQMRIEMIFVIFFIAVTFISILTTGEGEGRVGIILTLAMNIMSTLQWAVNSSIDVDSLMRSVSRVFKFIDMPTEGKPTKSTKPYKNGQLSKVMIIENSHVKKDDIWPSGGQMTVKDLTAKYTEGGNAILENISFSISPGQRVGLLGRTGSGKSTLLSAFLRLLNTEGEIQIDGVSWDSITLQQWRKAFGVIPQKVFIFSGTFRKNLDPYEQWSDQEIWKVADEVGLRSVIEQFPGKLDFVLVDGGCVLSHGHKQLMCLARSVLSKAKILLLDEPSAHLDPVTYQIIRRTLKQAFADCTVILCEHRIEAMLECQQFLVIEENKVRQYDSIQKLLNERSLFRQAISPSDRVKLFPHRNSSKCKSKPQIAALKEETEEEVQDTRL
T1 sequence (P13569 with tags, fused parts or gaps DEL508-508): as above
CFTR, sequence (P13569 whole entry, species assumed): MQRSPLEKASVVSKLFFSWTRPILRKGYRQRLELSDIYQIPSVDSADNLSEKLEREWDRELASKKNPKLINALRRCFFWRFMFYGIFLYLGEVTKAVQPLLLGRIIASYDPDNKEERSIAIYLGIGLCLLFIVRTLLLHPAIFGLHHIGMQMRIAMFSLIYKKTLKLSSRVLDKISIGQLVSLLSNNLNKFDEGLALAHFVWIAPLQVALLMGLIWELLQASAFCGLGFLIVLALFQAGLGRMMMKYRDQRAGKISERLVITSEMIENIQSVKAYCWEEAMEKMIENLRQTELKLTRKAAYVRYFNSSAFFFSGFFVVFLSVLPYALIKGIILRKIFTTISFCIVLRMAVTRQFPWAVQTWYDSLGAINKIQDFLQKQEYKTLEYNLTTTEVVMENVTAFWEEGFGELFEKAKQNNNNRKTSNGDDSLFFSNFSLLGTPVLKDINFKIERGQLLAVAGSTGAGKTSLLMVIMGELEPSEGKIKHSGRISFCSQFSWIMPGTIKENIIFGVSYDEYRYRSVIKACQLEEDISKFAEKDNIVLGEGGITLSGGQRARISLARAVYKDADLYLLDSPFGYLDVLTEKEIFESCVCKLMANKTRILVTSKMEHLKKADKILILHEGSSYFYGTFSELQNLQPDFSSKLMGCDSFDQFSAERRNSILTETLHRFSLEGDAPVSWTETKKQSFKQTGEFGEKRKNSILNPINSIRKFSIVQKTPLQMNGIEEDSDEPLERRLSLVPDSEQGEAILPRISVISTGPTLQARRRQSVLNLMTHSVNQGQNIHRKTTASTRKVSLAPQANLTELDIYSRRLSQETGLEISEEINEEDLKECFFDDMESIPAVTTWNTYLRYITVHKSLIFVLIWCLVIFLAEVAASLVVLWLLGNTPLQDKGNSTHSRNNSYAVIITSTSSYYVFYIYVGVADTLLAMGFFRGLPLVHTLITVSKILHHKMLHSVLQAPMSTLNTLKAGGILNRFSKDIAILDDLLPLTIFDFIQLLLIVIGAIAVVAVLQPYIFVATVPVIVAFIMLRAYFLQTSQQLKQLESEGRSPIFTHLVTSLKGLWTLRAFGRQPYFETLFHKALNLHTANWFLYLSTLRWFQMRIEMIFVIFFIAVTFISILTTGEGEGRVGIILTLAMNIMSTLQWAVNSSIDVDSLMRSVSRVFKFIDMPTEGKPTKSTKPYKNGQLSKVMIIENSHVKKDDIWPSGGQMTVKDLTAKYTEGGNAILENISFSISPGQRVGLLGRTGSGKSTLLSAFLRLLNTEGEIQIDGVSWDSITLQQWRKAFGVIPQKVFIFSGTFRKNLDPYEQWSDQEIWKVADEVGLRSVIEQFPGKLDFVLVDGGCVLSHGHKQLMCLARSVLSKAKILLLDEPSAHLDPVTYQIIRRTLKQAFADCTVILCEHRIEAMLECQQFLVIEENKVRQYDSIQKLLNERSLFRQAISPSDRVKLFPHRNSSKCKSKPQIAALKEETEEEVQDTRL

Compound `Cc1cccc(C)c1-c1cc2nc(n1)NS(=O)(=O)c1cccc(c1)NC(=O)c1cc(ccc1Br)O2` had a ring closure, isolated yield in series [1] of 20%.
The same measure, in the same setting: next, `Cc1cccc(C)c1-c1cc2nc(n1)NS(=O)(=O)c1cccc(c1)NC(=O)c1cccc(c1C)O2`: 33%.
For the compound `C[C@@H]1CCCCC[C@](O)(C(F)(F)F)C2=NN=C(O2)c2nc(c(C(F)(F)F)cc2N)O1` [(6R,12R)-17-amino-12-methyl-6,15-bis(trifluoromethyl)-13,19-dioxa-3,4,18-triazatricyclo[12.3.1.12,5]nonadeca-1(18),2,4,14,16-pentaen-6-ol], the CFTR modulatory activity result at CFTR was “confirmed”.
For the compound `Cc1cccc(C)c1-c1cc2nc(n1)NS(=O)(=O)c1cccc(c1)NC(=O)c1cc(ccc1Cl)O2` [Compound 55, 18-chloro-5-(2,6-dimethylphenyl)-9,9-dioxo-2-oxa-9λ^6-thia-6,8,15,23-tetraazatetracyclo[15.3.1.13,7.110,14]tricosa-1(21),3,5,7(23),10(22),11,13,17,19-nonaen-16-one], in series [2], the “Ent. A Max Activity (%)” value was “+++ (+++ is >60%)” and the concentration for a half-maximal effect (EC50) lay in the range of 1000 to 3000 nM. For the same compound, on F508del in NIH 3T3 cells, the half-maximal effective concentration (EC50) is < 1000 nM and the Emax was > 60%. The compound further gave a ring closure, yield after HPLC (from Cc1cccc(C)c1-c1cc(Oc2ccc(Cl)c(C(=O)O)c2)nc(NS(=O)(=O)c2cccc(N)c2)n1, amide bond, 14-membered ring, HATU/DIEA, 1.0 h) of 38%.
Consider `Cc1cccc(C)c1-c1cc2nc(n1)NS(=O)(=O)c1cccc(c1)NC(=O)CCCc1cccc(c1)O2` [Compound 65, 5-(2,6-Dimethylphenyl)-9,9-dioxo-2-oxa-9λ^6-thia-6,8,15,26-tetraazatetracyclo[18.3.1.13,7.110,14]hexacosa-1(23),3,5,7(26),10(25),11,13,20(24),21-nonaen-16-one], for which, in series [2], the “Ent. A Max Activity (%)” value is recorded as “+++ (+++ is >60%)” and the EC50 was 1000 to 3000 nM. Moreover, on F508del in NIH 3T3 cells, the EC50 is < 1000 nM and the Emax is > 60%. The compound further yielded a ring closure, yield after HPLC (from Cc1cccc(C)c1-c1cc(Oc2cccc(CCCC(=O)O)c2)nc(NS(=O)(=O)c2cccc(N)c2)n1, amide bond, 17-membered ring, HATU/DIEA, DMF, 56.8 mM, 0.033 h) of 28%.
In the case of `Cc1ccc2cc1Oc1cc(-c3c(C)cccc3C)nc(n1)NS(=O)(=O)c1cccc(c1)NC(=O)CC2` [Compound 66, 5-(2,6-Dimethylphenyl)-22-methyl-9,9-dioxo-2-oxa-9λ^6-thia-6,8,15,25-tetraazatetracyclo[17.3.1.13,7.110,14]pentacosa-1(22),3,5,7(25),10(24),11,13,19(23),20-nonaen-16-one], in series [2], the “Ent. A Max Activity (%)” value is “+++ (+++ is >60%)” and the EC50 was 1000 to 3000 nM. At F508del in NIH 3T3 cells, the EC50 is < 1000 nM and the Emax was > 60%. For the same compound, the ring closure, yield after HPLC (amide bond, 16-membered ring, none (thermal, isolated OPfp ester), NMP, 67.6 mM, 100.0 °C, 4 steps) amounted to 6%.
With `Cc1cccc(C)c1-c1cc2cc(n1)NS(=O)(=O)c1cccc(c1)NC(=O)c1cccc(c1)O2` [Compound 77, 5-(2,6-Dimethylphenyl)-9,9-dioxo-2-oxa-9λ^6-thia-6,8,15-triazatetracyclo[15.3.1.13,7.110,14]tricosa-1(20),3,5,7(23),10(22),11,13,17(21),18-nonaen-16-one], in series [2], the “Ent. A Max Activity (%)” value is recorded as “++ (++ is 30-60%)” and the EC50 lay in the range of 3000 to 30000 nM. Besides, at F508del in NIH 3T3 cells, the EC50 is < 1000 nM and the Emax was > 60%. This compound returned a ring closure, yield after HPLC (amide bond, 14-membered ring, HATU/DIEA, DMF, 130.0 mM) of 60%.
Take `Cc1cccc(C)c1-c1cc2nc(n1)NS(=O)(=O)c1cccc(c1)COC1CC(CN(C(=O)OC(C)(C)C)C1)O2` (stereo not shown) [Compound 119, tert-Butyl 19-(2,6-dimethylphenyl)-15,15-dioxo-2,8-dioxa-15λ^6-thia-5,16,18,21-tetraazatetracyclo[15.3.1.13,7.110,14]tricosa-1(21),10,12,14(22),17,19-hexaene-5-carboxylate]: in series [2], the “Ent. A Max Activity (%)” value was “+ (+ is <30%)”. Where the note is “from tert-butyl 3,5-dihydroxypiperidine-1-carboxylate + 3-(bromomethyl)-N-[4-chloro-6-(2,6-dimethylphenyl)pyrimidin-2-yl]benzenesulfonamide?, snar bond, 14-membered ring, NaH, DMF, 50.0 mM, 2 steps”, the ring closure, yield after HPLC was determined as 15%.
Take `Cc1cccc(C)c1-c1cc2nc(n1)NS(=O)(=O)c1cccc(c1)OC(Cc1ccccc1)CCO2` (stereo not shown) [Compound 120]: in series [3], the “Ent. B Max Activity (%)” value is “++ (++ is 30-60%)” and the EC50 is < 1000 nM.
For `Cc1cccc(C)c1-c1cc2nc(n1)NS(=O)(=O)c1cccc(c1)OC(c1ccccc1)CCO2` (stereo not shown) [Compound 121] the same measures were “+++ (+++ is >60%)” and < 1000 nM.
For `Cc1cccc(C)c1-c1cc2nc(n1)NS(=O)(=O)c1cccc(c1)OCCCO2` [Compound 122], in that order: “+ (+ is <30%)” and 3000 to 30000 nM.
